Values after ≈ are worked out from the molar mass of the structure shown. Values belong to the compound of their own block, whether it stands above or below them.
Columns and labels:
[1] = target: T1, Protein kinase C iota type (Homo sapiens, UniProt P41743); experiment: Inhibition of full-length N-terminal GST-fused human PKC-iota expressed in baculovirus expression system using (5FAM) RFARKGSLRQKNV as substrate after 60 mins by caliper assay
T1 sequence (P41743 whole entry): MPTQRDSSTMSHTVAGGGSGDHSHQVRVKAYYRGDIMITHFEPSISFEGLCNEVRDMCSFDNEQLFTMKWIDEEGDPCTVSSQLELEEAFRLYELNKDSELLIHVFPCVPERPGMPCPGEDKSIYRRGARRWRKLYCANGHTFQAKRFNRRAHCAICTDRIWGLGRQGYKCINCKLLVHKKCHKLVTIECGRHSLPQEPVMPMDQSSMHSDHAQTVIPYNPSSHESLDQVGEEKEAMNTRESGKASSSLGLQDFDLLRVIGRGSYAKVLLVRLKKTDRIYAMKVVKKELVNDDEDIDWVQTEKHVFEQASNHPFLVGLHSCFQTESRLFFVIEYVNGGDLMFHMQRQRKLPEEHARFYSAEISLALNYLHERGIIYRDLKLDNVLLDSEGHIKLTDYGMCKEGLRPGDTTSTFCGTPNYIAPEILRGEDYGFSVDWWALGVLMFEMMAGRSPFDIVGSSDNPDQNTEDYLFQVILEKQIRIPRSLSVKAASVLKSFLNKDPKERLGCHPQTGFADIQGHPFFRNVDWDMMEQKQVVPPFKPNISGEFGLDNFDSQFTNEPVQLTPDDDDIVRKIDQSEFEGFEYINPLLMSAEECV

[2] = target: Protein kinase C alpha type (Homo sapiens, UniProt P17252); experiment: Inhibition of full-length N-terminal GST-fused human PKC-alpha expressed in baculovirus expression system using (5FAM) RFARKGSLRQKNV as substrate after 60 mins by caliper assay
[3] = target: T2, Protein kinase C epsilon type (Homo sapiens, UniProt Q02156); experiment: Inhibition of full-length N-terminal GST-fused human PKC-epsilon expressed in baculovirus expression system using (5FAM) RFARKGSLRQKNV as substrate after 60 mins by caliper assay
T2 sequence (Q02156 whole entry): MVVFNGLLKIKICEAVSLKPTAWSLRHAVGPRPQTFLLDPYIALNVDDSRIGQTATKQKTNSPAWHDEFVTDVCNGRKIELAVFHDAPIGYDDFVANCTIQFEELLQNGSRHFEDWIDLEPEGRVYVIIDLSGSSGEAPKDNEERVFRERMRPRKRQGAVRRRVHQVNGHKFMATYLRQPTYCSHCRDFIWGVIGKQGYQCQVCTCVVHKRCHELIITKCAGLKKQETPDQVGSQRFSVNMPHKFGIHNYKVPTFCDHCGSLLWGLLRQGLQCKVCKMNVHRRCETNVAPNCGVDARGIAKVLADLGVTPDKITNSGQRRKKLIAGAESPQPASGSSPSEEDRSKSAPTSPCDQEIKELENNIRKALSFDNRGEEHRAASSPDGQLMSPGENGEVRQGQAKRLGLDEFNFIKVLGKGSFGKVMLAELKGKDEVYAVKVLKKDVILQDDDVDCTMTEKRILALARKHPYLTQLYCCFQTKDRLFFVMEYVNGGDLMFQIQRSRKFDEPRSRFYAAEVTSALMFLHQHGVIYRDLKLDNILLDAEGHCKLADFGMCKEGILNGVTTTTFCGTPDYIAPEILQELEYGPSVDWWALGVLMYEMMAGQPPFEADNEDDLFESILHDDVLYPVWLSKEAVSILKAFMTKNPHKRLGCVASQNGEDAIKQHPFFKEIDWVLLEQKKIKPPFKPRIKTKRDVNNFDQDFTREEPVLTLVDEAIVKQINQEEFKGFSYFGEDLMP

[4] = system: Huh-7; experiment: Antiproliferative activity against human HuH7 cells after 72 hrs by CellTiter-Glo assay; assay type: functional; details: Huh-7, 72 h
[5] = system: HCCLM3; experiment: Antiproliferative activity against human HCCLM3 cells after 72 hrs by CellTiter-Glo assay; assay type: functional; details: HCCLM3, 72 h
[6] = Solubility of the compound at pH 4; assay type: physicochemical; details: buffer
[7] = Solubility of the compound at pH 7.4; assay type: physicochemical; details: buffer
[8] = target: Cytochrome P450 2D6 (Homo sapiens, UniProt P10635); experiment: Inhibition of CYP2D6 (unknown origin); assay type: ADME
[9] = Clearance in mouse liver microsomes; assay type: ADME, microsome; details: read-out: CLH
[10] = Clearance in human liver microsomes; assay type: ADME, microsome; details: read-out: CLH
[11] = Half life in mouse liver microsomes; assay type: ADME, microsome
[12] = Half life in human liver microsomes; assay type: ADME, microsome
[13] = Permeability across apical to basolateral side in human Caco2 cells; assay type: ADME, cell-based; details: Caco-2, read-out: permeability

Sequence of Cytochrome P450 2D6 (P10635 whole entry): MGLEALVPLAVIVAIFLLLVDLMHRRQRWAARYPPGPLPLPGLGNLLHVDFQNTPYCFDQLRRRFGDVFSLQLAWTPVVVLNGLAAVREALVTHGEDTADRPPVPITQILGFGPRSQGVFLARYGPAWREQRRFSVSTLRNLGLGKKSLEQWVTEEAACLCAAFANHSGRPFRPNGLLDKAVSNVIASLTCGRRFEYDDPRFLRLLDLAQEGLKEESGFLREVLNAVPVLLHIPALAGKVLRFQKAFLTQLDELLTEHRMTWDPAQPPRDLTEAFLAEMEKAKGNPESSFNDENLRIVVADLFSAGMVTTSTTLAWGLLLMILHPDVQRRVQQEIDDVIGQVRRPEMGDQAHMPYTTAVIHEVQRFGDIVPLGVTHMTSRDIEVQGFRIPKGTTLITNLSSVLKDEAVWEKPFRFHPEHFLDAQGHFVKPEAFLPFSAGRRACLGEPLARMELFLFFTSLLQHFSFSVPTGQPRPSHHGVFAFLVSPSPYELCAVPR

SMILES: Nc1ccc2[nH]cnc2c1
- IC50 [1]: 728 µM

SMILES: Brc1ccnc2[nH]ccc12
- IC50 [1]: 615 µM

SMILES: COc1cc2c(cc1-n1cnc3cnc(-c4ccnc5[nH]ccc45)cc31)CNC2
- IC50 [2]: 0.25 µM

SMILES: COc1cc2c(cc1-c1cnn3ccc(-c4ccnc5[nH]ccc45)nc13)CNC2
- IC50 [2]: 0.35 µM

SMILES: COc1cc2c(cc1-c1cnn3ccc(-c4ccnc5[nH]ccc45)cc13)CNC(CF)C2 (centres undefined)
- IC50 [1]: 0.0027 µM
- IC50 [2]: 0.045 µM
- IC50 [3]: 0.045 µM
- GI50 [4]: 3.3 µM
- GI50 [5]: 6.6 µM

SMILES: COc1cc2c(cc1-n1cnc3ccc(-c4ccnc5[nH]ccc45)nc31)CNC2
- IC50 [2]: 0.43 µM

SMILES: COc1cc2c(cc1-c1cnn3ccc(-c4ccnc5[nH]ccc45)cc13)CNC2
- IC50 [2]: 0.11 µM

SMILES: O=c1[nH]ncc2ccccc12 [PHTHALAZINONE]
- IC50 [1]: 589 µM

Further lines, results first:

- IC50 [1]: 1680 µM
SMILES: O=C1CCCc2cc(O)ccc21

- IC50 [2]: 0.071 µM
SMILES: COc1cc2c(cc1-c1cnn3ccc(-c4ccnc5[nH]ccc45)cc13)CNCC2

- IC50 [2]: 2.5 µM
SMILES: COc1ccc2c(c1)C(=O)N(c1cnn3ccc(-c4ccnc5[nH]ccc45)cc13)C2

- IC50 [1]: 1300 µM
SMILES: Clc1ccnc2[nH]ccc12

- IC50 [2]: 0.34 µM
SMILES: COc1cc2c(cc1-c1cnc3ccc(-c4ccnc5[nH]ccc45)cn13)CNC2

- IC50 [2]: 0.14 µM
SMILES: COc1cc2c(cc1-c1cnn3ccc(-c4ccnc5[nH]ccc45)cc13)CN(C)C2

- IC50 [2]: 0.064 µM
SMILES: COc1cc2c(cc1-c1cnn3ccc(-c4ccnc5[nH]ccc45)cc13)CNC(C)C2 (centres undefined)

- IC50 [1]: 0.048 µM
- IC50 [2]: 0.28 µM
- IC50 [3]: 0.56 µM
- GI50 [4]: 9 µM
- solubility [6]: 790 µg/mL (≈ 2070 µM)
- solubility [7]: 1.3 µg/mL (≈ 3.41 µM)
- IC50 [8]: 24 µM
- microsomal CLint [9]: 21.5 µL/min/mg
- microsomal CLint [10]: 10 µL/min/mg
- half-life [11]: 32 min
- half-life [12]: 67 min
- Papp A→B [13]: 0.57 ×10⁻⁶ cm/s
SMILES: COc1cc2c(cc1-n1cnc3ccc(-c4ccnc5[nH]ccc45)cc31)CNC2

- IC50 [2]: 1.4 µM
SMILES: COc1cc2c(cc1-c1cnc3ccc(-c4ccnc5[nH]ccc45)nn13)CNC2

- IC50 [2]: 0.38 µM
SMILES: COc1cc2c(cc1-c1cnn3ccc(-c4ccnc5[nH]ccc45)cc13)CN(C(C)=O)C2

- IC50 [1]: 1310 µM
SMILES: Cn1ccc2cc(N)ccc21
